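Tested at 5 concentrations; 48 h exposure; 96-well plates; endpoints linearly interpolated, else capped at highest concentration. Here, GI50 denotes the concentration required for 50% inhibition of growth.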 Calls of active or inactive are those of the source. Cut-off read from the data, not from the text of the source: active = GI50 up to about 1.1 µM and inactive = higher.
Key:
Assay in all cases: inhibition of tumour cell growth, NCI panel, 48 h
RXF 393 = tested on: RXF 393
SK-MEL-28 = tested on: SK-MEL-28
UO-31 = tested on: UO-31
LOX IMVI = tested on: LOX IMVI
RPMI-8226 = tested on: RPMI-8226
OVCAR-8 = tested on: OVCAR-8
BT-549 = tested on: BT-549
OVCAR-4 = tested on: OVCAR-4
MDA-MB-435 = tested on: MDA-MB-435
HCT-116 = tested on: HCT-116
OVCAR-5 = tested on: OVCAR-5
SF-295 = tested on: SF-295
A549 = tested on: A549
SK-OV-3 = tested on: SK-OV-3
SW-620 = tested on: SW-620
DU-145 = tested on: DU-145
EKVX = tested on: EKVX
NCI-H460 = tested on: NCI-H460
OVCAR-3 = tested on: OVCAR-3
HL-60 = tested on: HL-60

Row | Structure (SMILES) | GI50 (RXF 393) | GI50 (SK-MEL-28) | GI50 (UO-31) | GI50 (LOX IMVI) | GI50 (RPMI-8226) | GI50 (OVCAR-8) | GI50 (BT-549) | GI50 (OVCAR-4) | GI50 (MDA-MB-435) | GI50 (HCT-116) | GI50 (OVCAR-5) | GI50 (SF-295) | GI50 (A549) | GI50 (SK-OV-3) | GI50 (SW-620) | GI50 (DU-145) | GI50 (EKVX) | GI50 (NCI-H460) | GI50 (OVCAR-3) | GI50 (HL-60)
1 | Cn1c2ccccc2c2c3c(c4c5ccccc5n(C)c4c21)C(=O)NC3=O | 0.0589 µM (active) | > 65.2 µM (inactive) | > 54.2 µM (inactive) | > 34.8 µM (inactive) | > 51.9 µM (inactive) | 18.7 µM (inactive) | > 42.4 µM (inactive) | 5.3 µM (inactive) | > 42.7 µM (inactive) | > 64.1 µM (inactive) | 72.8 µM (inactive) | 20.4 µM (inactive) | > 19.7 µM (inactive) | 5.35 µM (inactive) | > 74.6 µM (inactive) | > 100 µM (inactive) | 10.9 µM (inactive) | 7.6 µM (inactive) | – | –
2 | COc1ccc2c(c1)CCc1c-2n(CCN2CCCCC2)c2ccc(OC)cc12 | – | > 100 µM (inactive) | > 100 µM (inactive) | > 100 µM (inactive) | > 100 µM (inactive) | 92 µM (inactive) | > 100 µM (inactive) | > 100 µM (inactive) | > 100 µM (inactive) | > 100 µM (inactive) | > 100 µM (inactive) | > 100 µM (inactive) | > 100 µM (inactive) | > 100 µM (inactive) | > 100 µM (inactive) | > 100 µM (inactive) | > 100 µM (inactive) | > 100 µM (inactive) | > 100 µM (inactive) | –
3 | NC1=CN(Cc2ccccc2)C2=N/C(=C\c3ccco3)C(=O)N12 | > 100 µM (inactive) | > 100 µM (inactive) | > 100 µM (inactive) | > 100 µM (inactive) | – | > 100 µM (inactive) | > 100 µM (inactive) | > 100 µM (inactive) | > 100 µM (inactive) | > 100 µM (inactive) | > 100 µM (inactive) | > 100 µM (inactive) | > 100 µM (inactive) | > 100 µM (inactive) | > 100 µM (inactive) | > 100 µM (inactive) | > 100 µM (inactive) | > 100 µM (inactive) | > 100 µM (inactive) | > 100 µM (inactive)
4 | Cc1ccc2c(c1)-c1nc(N)c(C#N)c(-c3ccc(Cl)cc3)c1CCS2(=O)=O | – | 48.9 µM (inactive) | 20 µM (inactive) | 35.8 µM (inactive) | – | 32 µM (inactive) | 49 µM (inactive) | 52 µM (inactive) | 31.3 µM (inactive) | 33 µM (inactive) | – | – | 34.8 µM (inactive) | – | 46 µM (inactive) | 53.8 µM (inactive) | – | 35.2 µM (inactive) | – | 17.7 µM (inactive)
5 | C#C[C@]1(O)CC[C@H]2[C@@H]3CCC4=C/C(=N/CCOC(=O)c5cccc6cc7ccccc7nc56)CC[C@@H]4[C@H]3CC[C@@]21C | 4.06 µM (inactive) | 75.2 µM (inactive) | 30.5 µM (inactive) | 12.3 µM (inactive) | – | 10 µM (inactive) | 24.2 µM (inactive) | 26 µM (inactive) | 27.3 µM (inactive) | 27.1 µM (inactive) | 40.5 µM (inactive) | 22.3 µM (inactive) | 28.4 µM (inactive) | 64.4 µM (inactive) | 57.3 µM (inactive) | 21 µM (inactive) | 34.8 µM (inactive) | 14.9 µM (inactive) | 35.5 µM (inactive) | > 100 µM (inactive)
6 | CC(=O)OCc1cc2ccccc2nc1C(Br)(Br)Br | 15.4 µM (inactive) | 17.9 µM (inactive) | 15.6 µM (inactive) | 11.1 µM (inactive) | – | – | 10.4 µM (inactive) | 11.8 µM (inactive) | 13.3 µM (inactive) | 12.5 µM (inactive) | 15.4 µM (inactive) | 16.4 µM (inactive) | 16.4 µM (inactive) | 28.3 µM (inactive) | 18.7 µM (inactive) | 4.59 µM (inactive) | 19.1 µM (inactive) | 16.2 µM (inactive) | 14.8 µM (inactive) | 14.9 µM (inactive)
7 | COC(=O)c1sc(=S)sc1SCc1ccc(CSc2sc(=S)sc2C(=O)OC)cc1 | > 100 µM (inactive) | > 100 µM (inactive) | > 100 µM (inactive) | > 100 µM (inactive) | – | > 100 µM (inactive) | > 100 µM (inactive) | > 100 µM (inactive) | > 100 µM (inactive) | > 100 µM (inactive) | > 100 µM (inactive) | > 100 µM (inactive) | > 100 µM (inactive) | > 100 µM (inactive) | > 100 µM (inactive) | > 100 µM (inactive) | > 100 µM (inactive) | > 100 µM (inactive) | > 100 µM (inactive) | –
8 | CC1CNC(c2ccc(CN3CCC(CCCC4CCN(Cc5ccc(C6=NC(C)CN6)cc5)CC4)CC3)cc2)=N1 (stereo not given) | 27.4 µM (inactive) | > 100 µM (inactive) | > 100 µM (inactive) | 82.4 µM (inactive) | – | 71.3 µM (inactive) | > 100 µM (inactive) | 19.7 µM (inactive) | 17.2 µM (inactive) | 29 µM (inactive) | 25.3 µM (inactive) | > 100 µM (inactive) | 66.1 µM (inactive) | 25.5 µM (inactive) | 30.5 µM (inactive) | 45.8 µM (inactive) | 32.2 µM (inactive) | 18.5 µM (inactive) | > 100 µM (inactive) | > 100 µM (inactive)
9 | CCCCOC(=O)NC(Nc1ccc(S(=O)(=O)Nc2ncccn2)cc1)(C(F)(F)F)C(F)(F)F | > 100 µM (inactive) | > 100 µM (inactive) | 21.7 µM (inactive) | > 100 µM (inactive) | 86.9 µM (inactive) | > 100 µM (inactive) | – | > 100 µM (inactive) | > 100 µM (inactive) | > 100 µM (inactive) | > 100 µM (inactive) | > 100 µM (inactive) | > 100 µM (inactive) | > 100 µM (inactive) | > 100 µM (inactive) | > 100 µM (inactive) | > 100 µM (inactive) | > 100 µM (inactive) | > 100 µM (inactive) | 89.7 µM (inactive)
10 | CC(C)(C)C1=C(Br)C(O)(C(C)(C)C)OP1(=O)c1ccccc1 (stereo not given) | > 100 µM (inactive) | > 100 µM (inactive) | – | > 100 µM (inactive) | – | > 100 µM (inactive) | – | > 100 µM (inactive) | > 100 µM (inactive) | – | > 100 µM (inactive) | > 100 µM (inactive) | > 100 µM (inactive) | > 100 µM (inactive) | > 100 µM (inactive) | > 100 µM (inactive) | > 100 µM (inactive) | > 100 µM (inactive) | > 100 µM (inactive) | > 100 µM (inactive)
11 | COc1cc(OC)c(/C=C\c2ccnc3ccccc23)c(OC)c1 | 2.39 µM (inactive) | 5.37 µM (inactive) | 0.859 µM (active) | 2.73 µM (inactive) | 3.06 µM (inactive) | – | – | 0.349 µM (active) | 0.404 µM (active) | 2.5 µM (inactive) | 6.05 µM (inactive) | 2.53 µM (inactive) | 4.13 µM (inactive) | 6.44 µM (inactive) | 3.62 µM (inactive) | 5.37 µM (inactive) | 4.65 µM (inactive) | 3.2 µM (inactive) | 2.92 µM (inactive) | 0.347 µM (active)
12 | Cn1c(N/N=C/c2ccccc2)nc(-c2ccc3c(c2)OCO3)c(C#N)c1=O | 81.8 µM (inactive) | > 100 µM (inactive) | 77.3 µM (inactive) | 55.6 µM (inactive) | 47.1 µM (inactive) | 22.8 µM (inactive) | – | 61.7 µM (inactive) | 73.8 µM (inactive) | > 100 µM (inactive) | > 100 µM (inactive) | 84.9 µM (inactive) | 45.4 µM (inactive) | > 100 µM (inactive) | > 100 µM (inactive) | 84.5 µM (inactive) | 70.6 µM (inactive) | 87.7 µM (inactive) | 27.5 µM (inactive) | 39.9 µM (inactive)
13 | CCOC(=O)c1c(NC(=O)c2ccccc2)sc2c1CCC2 | > 100 µM (inactive) | – | > 100 µM (inactive) | – | > 100 µM (inactive) | > 100 µM (inactive) | > 100 µM (inactive) | – | – | > 100 µM (inactive) | > 100 µM (inactive) | > 100 µM (inactive) | > 100 µM (inactive) | – | – | > 100 µM (inactive) | > 100 µM (inactive) | > 100 µM (inactive) | > 100 µM (inactive) | > 100 µM (inactive)
14 | Cc1ccc(-c2cc(-c3ccc(Cl)cc3)nc(/N=C3\C(=O)N(CN(C)C)c4ccccc43)n2)cc1 | 22.3 µM (inactive) | > 100 µM (inactive) | 90.8 µM (inactive) | 24.2 µM (inactive) | – | 58.9 µM (inactive) | 78.5 µM (inactive) | 41.2 µM (inactive) | 17.1 µM (inactive) | 64 µM (inactive) | > 100 µM (inactive) | > 100 µM (inactive) | 89.1 µM (inactive) | > 100 µM (inactive) | 12.9 µM (inactive) | 31.7 µM (inactive) | > 100 µM (inactive) | 39.9 µM (inactive) | > 100 µM (inactive) | 7.89 µM (inactive)
15 | C[N+]1(C)CC[N+](C)(C)[BH-]1C(O)O | > 100 µM (inactive) | > 100 µM (inactive) | > 100 µM (inactive) | > 100 µM (inactive) | – | > 100 µM (inactive) | > 100 µM (inactive) | > 100 µM (inactive) | > 100 µM (inactive) | > 100 µM (inactive) | > 100 µM (inactive) | > 100 µM (inactive) | > 100 µM (inactive) | – | > 100 µM (inactive) | > 100 µM (inactive) | > 100 µM (inactive) | > 100 µM (inactive) | > 100 µM (inactive) | > 100 µM (inactive)

Reference: ChEMBL document CHEMBL1201862, “PubChem BioAssay data set” (2004)
